Test results reported in ChEMBL document CHEMBL3286303, “Synthesis and in vitro antiproliferative evaluation of novel N-alkylated 6-isobutyl- and propyl pyrimidine derivatives” (Bioorg Med Chem Lett, 2014).
pIC50: −log10 of the molar value. Active and inactive are the calls of the source. The rule behind the calls is not given here.

Columns and labels:
MIA PaCa-2 = assay: (§1) Antiproliferative activity against human MIAPaCa2 cells after 72 hrs by MTT assay; assay type: functional, cell-based
[1] = as §1; assay type: functional, cell-based; conditions: MIA PaCa-2, 72 h
K562 [2] = assay: Cell cycle arrest in human K562 cells as assessed as accumulation at sub-G1 phase at 0.5 uM after 24 hrs by propidium iodide staining-based flow cytometric analysis relative to control; assay type: functional
K562 [3] = assay: Cell cycle arrest in human K562 cells as assessed as accumulation at sub-G1 phase at 1 uM after 24 hrs by propidium iodide staining-based flow cytometric analysis relative to control; assay type: functional
MCF7 [4] = assay: Cell cycle arrest in human MCF7 cells as assessed as accumulation at G1 phase at 0.1 uM after 24 hrs by propidium iodide staining-based flow cytometric analysis relative to control; assay type: functional
SW-620 [5] = assay: Cell cycle arrest in human SW620 cells as assessed as accumulation at sub-G1 phase at 0.1 uM after 24 hrs by propidium iodide staining-based flow cytometric analysis relative to control; assay type: functional
WI-38 [6] = assay: Cell cycle arrest in human WI38 cells as assessed as accumulation at sub-G1 phase at 1 uM after 48 hrs by propidium iodide staining-based flow cytometric analysis relative to control; conditions: wi-38, 48 h
SW-620 [7] = assay: Antiadhesive activity against human SW620 cells at 5 uM after 2 to 24 hrs by crystal-violet staining-based microscopic analysis; assay type: functional, cell-based
BJ = assay: Antiadhesive activity against human BJ cells at 5 uM after 2 to 24 hrs by crystal-violet staining-based microscopic analysis; assay type: ADME, cell-based
K562 [8] = assay: Cell cycle arrest in human K562 cells as assessed as accumulation at G1 phase at 0.1 uM after 48 hrs by propidium iodide staining-based flow cytometric analysis relative to control; assay type: functional
K562 [9] = assay: Cell cycle arrest in human K562 cells as assessed as accumulation at G2/M phase at 0.5 uM after 24 hrs by propidium iodide staining-based flow cytometric analysis relative to control; assay type: functional
K562 [10] = assay: Cell cycle arrest in human K562 cells as assessed as accumulation at G1 phase at 1 uM after 48 hrs by propidium iodide staining-based flow cytometric analysis relative to control; assay type: functional
MCF7 [11] = assay: Cell cycle arrest in human MCF7 cells as assessed as accumulation at G1 phase at 0.1 uM after 48 hrs by propidium iodide staining-based flow cytometric analysis relative to control; assay type: functional
MCF7 [12] = assay: Cell cycle arrest in human MCF7 cells as assessed as accumulation at sub-G1 phase at 1 uM after 24 hrs by propidium iodide staining-based flow cytometric analysis relative to control; assay type: functional
K562 [13] = assay: Cell cycle arrest in human K562 cells as assessed as accumulation at sub-G1 phase at 0.5 uM after 48 hrs by propidium iodide staining-based flow cytometric analysis relative to control; assay type: functional
MCF7 [14] = assay: Cell cycle arrest in human MCF7 cells as assessed as accumulation at G1 phase at 1 uM after 24 hrs by propidium iodide staining-based flow cytometric analysis relative to control; assay type: functional
MCF7 [15] = assay: Cell cycle arrest in human MCF7 cells as assessed as accumulation at G2/M phase at 1 uM after 24 hrs by propidium iodide staining-based flow cytometric analysis relative to control; assay type: functional
HeLa = assay: Antiproliferative activity against human HeLa cells after 72 hrs by MTT assay; assay type: functional, cell-based
WI-38 [16] = assay: Cell cycle arrest in human WI38 cells as assessed as accumulation at G2/M phase at 0.1 uM after 48 hrs by propidium iodide staining-based flow cytometric analysis relative to control; conditions: wi-38, 48 h
SW-620 [17] = assay: Cell cycle arrest in human SW620 cells as assessed as accumulation at S phase at 0.1 uM after 24 hrs by propidium iodide staining-based flow cytometric analysis relative to control; assay type: functional
MCF7 [18] = assay: Cell cycle arrest in human MCF7 cells as assessed as accumulation at G2/M phase at 0.1 uM after 48 hrs by propidium iodide staining-based flow cytometric analysis relative to control; assay type: functional
MCF7 [19] = assay: Cell cycle arrest in human MCF7 cells as assessed as accumulation at G2/M phase at 0.1 uM after 24 hrs by propidium iodide staining-based flow cytometric analysis relative to control; assay type: functional
SW-620 [20] = assay: Cell cycle arrest in human SW620 cells as assessed as accumulation at G2/M phase at 1 uM after 24 hrs by propidium iodide staining-based flow cytometric analysis relative to control; assay type: functional
K562 [21] = assay: Cell cycle arrest in human K562 cells as assessed as accumulation at S phase at 0.5 uM after 24 hrs by propidium iodide staining-based flow cytometric analysis relative to control; assay type: functional
SW-620 [22] = assay: Cell cycle arrest in human SW620 cells as assessed as accumulation at S phase at 0.1 uM after 48 hrs by propidium iodide staining-based flow cytometric analysis relative to control; assay type: functional
MCF7 [23] = assay: Cell cycle arrest in human MCF7 cells as assessed as accumulation at sub-G1 phase at 0.1 uM after 24 hrs by propidium iodide staining-based flow cytometric analysis relative to control; assay type: functional
K562 [24] = assay: Cell cycle arrest in human K562 cells as assessed as accumulation at G2/M phase at 0.1 uM after 48 hrs by propidium iodide staining-based flow cytometric analysis relative to control; assay type: functional
K562 [25] = assay: Cell cycle arrest in human K562 cells as assessed as accumulation at S phase at 0.1 uM after 48 hrs by propidium iodide staining-based flow cytometric analysis relative to control; assay type: functional
SW-620 [26] = assay: Cell cycle arrest in human SW620 cells as assessed as accumulation at sub-G1 phase at 0.1 uM after 48 hrs by propidium iodide staining-based flow cytometric analysis relative to control; assay type: functional
SW-620 [27] = assay: Cell cycle arrest in human SW620 cells as assessed as accumulation at G1 phase at 1 uM after 24 hrs by propidium iodide staining-based flow cytometric analysis relative to control; assay type: functional
MCF7 [28] = assay: Cell cycle arrest in human MCF7 cells as assessed as accumulation at S phase at 0.1 uM after 24 hrs by propidium iodide staining-based flow cytometric analysis relative to control; assay type: functional
WI-38 [29] = assay: Cell cycle arrest in human WI38 cells as assessed as accumulation at S phase at 1 uM after 48 hrs by propidium iodide staining-based flow cytometric analysis relative to control; conditions: wi-38, 48 h
SW-620 [30] = assay: Cell cycle arrest in human SW620 cells as assessed as accumulation at sub-G1 phase at 1 uM after 24 hrs by propidium iodide staining-based flow cytometric analysis relative to control; assay type: functional
SW-620 [31] = assay: Cell cycle arrest in human SW620 cells as assessed as accumulation at S phase at 1 uM after 24 hrs by propidium iodide staining-based flow cytometric analysis relative to control; assay type: functional
K562 [32] = assay: Cell cycle arrest in human K562 cells as assessed as accumulation at S phase at 0.5 uM after 48 hrs by propidium iodide staining-based flow cytometric analysis relative to control; assay type: functional
WI-38 [33] = assay: Cell cycle arrest in human WI38 cells as assessed as accumulation at G1 phase at 0.1 uM after 24 hrs by propidium iodide staining-based flow cytometric analysis relative to control; conditions: wi-38, 24 h
SW-620 [34] = assay: Cell cycle arrest in human SW620 cells as assessed as accumulation at S phase at 1 uM after 48 hrs by propidium iodide staining-based flow cytometric analysis relative to control; assay type: functional
MCF7 [35] = assay: Antiadhesive activity against human MCF7 cells at 5 uM after 2 to 24 hrs by crystal-violet staining-based microscopic analysis; assay type: functional, cell-based

## COCn1c(CC(COCc2ccccc2)COCc2ccccc2)c(C)c(=O)n(COC)c1=O
MIA PaCa-2
  Activity: Dose-dependent effect
[1]
  pIC50: 6.30
K562 [2]
  Activity: 3.3%
K562 [3]
  Activity: 3.1%
MCF7 [4]
  Activity: 25.5%
SW-620 [5]
  Activity: 4.3%
WI-38 [6]
  Activity: 47.9%
SW-620 [7]
  Activity: Active
BJ
  Activity: Toxic
K562 [8]
  Activity: 49.8%
K562 [9]
  Activity: 4.8%
K562 [10]
  Activity: 51.8%
MCF7 [11]
  Activity: 23.8%
MCF7 [12]
  Activity: 67.1%
K562 [13]
  Activity: 15%
MCF7 [14]
  Activity: 14.8%
MCF7 [15]
  Activity: 8.7%
HeLa
  Activity: Dose-dependent effect
  pIC50: 6.52
WI-38 [16]
  Activity: 5.7%
SW-620 [17]
  Activity: 19.6%
MCF7 [18]
  Activity: 9.5%
MCF7 [19]
  Activity: 7.1%
SW-620 [20]
  Activity: 20.1%
K562 [21]
  Activity: 5.6%
SW-620 [22]
  Activity: 25.6%
MCF7 [23]
  Activity: 55.5%
K562 [24]
  Activity: 23.5%
K562 [25]
  Activity: 24.1%
SW-620 [26]
  Activity: 6.8%
SW-620 [27]
  Activity: 55.9%
MCF7 [28]
  Activity: 9.7%
WI-38 [29]
  Activity: 3.4%
SW-620 [30]
  Activity: 5.2%
SW-620 [31]
  Activity: 16.1%
K562 [32]
  Activity: 18.2%
WI-38 [33]
  Activity: 61.7%
SW-620 [34]
  Activity: 22%
MCF7 [35]
  Activity: Active
